Values of other authors, collected in article PMC12671102 (Drug Design, Development and Therapy, 2025).

Legend:
subjects [1] = system: subjects
subjects [2] = details: Phase II study
[3] = moderate fat meal

nephrolithiasis (subjects [2])	subjects with increases in serum creatinine (subjects [2])	effect of food on absorption [3]	SMILES	subjects with TEAEs (subjects [1])
–	–	–	O=C(c1cc(Br)c(O)c(Br)c1)N1CCOc2ccncc21 [URC102]	41%
no nephrolithiasis	17.1%	delayed absorption	CC(C)(Sc1ccncc1-c1ccc(C#N)c2ccccc12)C(=O)O [verinurad]	–
